Tested on: HOP-62 multicell spheroids with HUVEC/MSC, viability
Experiment: Anticancer human tumor HOP-62 cell line growth inhibition [KRAS2];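 also: viability read after a week of compound exposure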;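 as to viability, T/C: 100% = DMSO vehicle-treated spheroids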
Details: for IC50: curve of first compound; for viability, T/C: stronger effect = lower value
From the text: Multicellular complex tumor spheroid response to RAS pathway inhibitors in combination with a targeted agents in patient-derived cell lines with oncogenic KRAS variants from multiple cancer types
A high-throughput screen of multi-cell type tumor spheroids was designed to identify active combinations of targeted small molecules and KRAS pathway inhibitors. Complex spheroids include a stromal component modeled by human endothelial cells (HUVEC) and fibroblasts modeled by human mesenchymal stem cells (MSCs). The concentration ranges selected for each drug and investigational agent were based upon clinically achievable concentrations if the clinical Cmax of the agent was known.
Compounds. The drugs and investigational agents: BI-3406 (NSC825286), BAY-293 (NSC824723), batoprotafib (TNO155; NSC825523), sotorasib (AMG 510; NSC818433), MRTX1257 (NSC819558), elimusertib (BAY 1895344; NSC800525), molibresib (GSK525762; NSC774829), temuterkib (LY3214996; NSC803410), venetoclax (NSC766270), alisertib (NSC759677), olaparib (NSC753686), talazoparib (NSC767125), erdafitinib (NSC781556), ipatasertib (NSC767898), cabozantinib (NSC761068), nintedanib (NSC756659), abemaciclib (NSC768073), docetaxel (NSC628503), trametinib (NSC758246), and sapanisertib (NSC764658) were obtained from the National Cancer Institute (NCI) Developmental Therapeutics Program Chemical Repository. The FDA-approved anticancer drug set is available from the Developmental Therapeutics Program. […] The stock solutions were prepared in dimethyl sulfoxide (DMSO, Sigma-Aldrich, St. Louis, MO, cat. D2650) at 800-fold the tested concentration and stored at -70 degrees C prior to their use. All drugs and investigational agents were tested over a range starting from a high concentration at or near the clinical Cmax and decreasing in half-log increments. If the clinical Cmax for an agent had not been determined, the highest concentration tested was 10 microM.
Cell Culture. All cells were maintained in an incubator at 37 degrees C and 5% CO2 with 95% humidity. The PDC lines were cultured according to standard operating procedures established by the NCI PDMR (https://pdmr.cancer.gov/sops/default.htm). Briefly, all PDCs were thawed and cultured in Matrigel-coated flasks prepared with a working solution of 1X Ham's F-12 nutrient mix, without supplementation (Invitrogen, Waltham, MA, cat. 11765054), 100 U/mL penicillin-streptomycin (Invitrogen, cat. 15140122), and 2.5% Matrigel (Corning Inc., Corning, NY, cat. 354248) for the first three passages. All PDCs were cultured in complete DMEM/F-12 media containing advanced DMEM/F-12 (Invitrogen, cat. 12634028), 4.9% defined fetal bovine serum, heat inactivated (HyClone Laboratories Inc., Logan, UT, cat. SH30070.03HI), 389 ng/mL hydrocortisone (Sigma-Aldrich, cat. H4001), 9.7 ng/mL human EGF recombinant protein (Invitrogen, cat. PHG0313), 23.4 microg/mL adenine (Sigma-Aldrich, cat. A2786), 97.3 U/mL penicillin-streptomycin (Invitrogen, cat. 15140122), 1.9 mM L-glutamine (Invitrogen, cat. 25030081), and 9.7 microM Y-27632 dihydrochloride (Tocris Bioscience, Bristol, United Kingdom, cat. 1254). The PDCs were cultured in complete DMEM/F12 media without 9.7 microM Y-27632 dihydrochloride for at least two passages prior to the screen. The established cell line HOP-62 was cultured in RPMI 1640 medium, HEPES (Invitrogen, cat. 22400105) with 10% defined fetal bovine serum (HyClone Laboratories Inc., cat. SH30070.03) and 2 mM L-glutamine (Invitrogen, cat. 25030081). The pooled donor HUVEC were cultured in endothelial cell growth medium 2 (PromoCell, Heidelberg, Germany, cat. C-22011) and the hMSC were cultured in mesenchymal stem cell growth medium 2 (PromoCell, cat. C-28009). For all experiments, HUVEC and hMSC were used at passages </=5, while the malignant cell lines were used at passages </=15. […]

[1] = second compound 0.1 µM, first compound 0.0316 µM
[2] = second compound 0.1 µM, first compound 0.1 µM
[3] = second compound 0.1 µM, first compound 0.316 µM
[4] = second compound 0.1 µM, first compound 1 µM
[5] = second compound 0.1 µM, first compound 3.16 µM
[6] = second compound 0.316 µM, first compound 0.0316 µM
[7] = second compound 0.316 µM, first compound 0.1 µM
[8] = second compound 0.316 µM, first compound 0.316 µM
[9] = second compound 0.316 µM, first compound 1 µM
[10] = second compound 0.316 µM, first compound 3.16 µM
[11] = second compound 1 µM, first compound 0.0316 µM
[12] = second compound 1 µM, first compound 0.1 µM
[13] = second compound 1 µM, first compound 0.316 µM
[14] = second compound 1 µM, first compound 1 µM
[15] = second compound 1 µM, first compound 3.16 µM
[16] = second compound 3.16 µM, first compound 0.0316 µM
[17] = second compound 3.16 µM, first compound 0.1 µM
[18] = second compound 3.16 µM, first compound 0.316 µM
[19] = second compound 3.16 µM, first compound 1 µM
[20] = second compound 3.16 µM, first compound 3.16 µM
[21] = second compound 10 µM, first compound 0.0316 µM
[22] = second compound 10 µM, first compound 0.1 µM
[23] = second compound 10 µM, first compound 0.316 µM
[24] = second compound 10 µM, first compound 1 µM
[25] = second compound 10 µM, first compound 3.16 µM
[26] = second compound 0.1 µM, first compound 10 µM
[27] = second compound 0.316 µM, first compound 10 µM
[28] = second compound 1 µM, first compound 10 µM
[29] = second compound 3.16 µM, first compound 10 µM
[30] = second compound 10 µM, first compound 10 µM

SMILES	IC50 (second compound 0.1 µM) [nM]	IC50 (second compound 0.316 µM) [nM]	IC50 (second compound 1 µM) [nM]	IC50 (second compound 3.16 µM) [nM]	viability, T/C [1] [%]	viability, T/C [2] [%]	viability, T/C [3] [%]	viability, T/C [4] [%]	viability, T/C [5] [%]	viability, T/C [6] [%]	viability, T/C [7] [%]	viability, T/C [8] [%]	viability, T/C [9] [%]	viability, T/C [10] [%]	viability, T/C [11] [%]	viability, T/C [12] [%]	viability, T/C [13] [%]	viability, T/C [14] [%]	viability, T/C [15] [%]	viability, T/C [16] [%]	further results
CC1COCCN1c1cc(-c2ccnn2C)c2ccnc(-c3ccn[nH]3)c2n1 (stereo not given) + COc1cc2nc(C)nc(NC(C)c3cc(N)cc(C(F)(F)F)c3)c2cc1OC1CCOC1	< 10	68.6	54.2	22.8	6.78	7.26	6.53	8.4	10.7	83.5	33.9	16.5	13.4	14.4	65.8	31.4	19.6	12.5	11.2	38.2	IC50 (second compound 10 µM): 10.9 nM; viability, T/C (second compound 0.1 µM, first compound 0.01 µM): 8.83%; viability, T/C (second compound 0.316 µM, first compound 0.01 µM): 125%; viability, T/C (second compound 1 µM, first compound 0.01 µM): 120%; viability, T/C (second compound 3.16 µM, first compound 0.01 µM): 77.4%; viability, T/C [17]: 22.9%; viability, T/C [18]: 13.9%; viability, T/C [19]: 9.69%; viability, T/C [20]: 10.8%; viability, T/C (second compound 10 µM, first compound 0.01 µM): 52.1%; viability, T/C [21]: 36%; viability, T/C [22]: 27.4%; viability, T/C [23]: 22.3%; viability, T/C [24]: 15.8%; viability, T/C [25]: 12.9%
COc1cc(Nc2ncc3c(n2)-c2ccc(Cl)cc2C(c2c(F)cccc2OC)=NC3)ccc1C(=O)O + COc1cc2nc(C)nc(NC(C)c3cc(N)cc(C(F)(F)F)c3)c2cc1OC1CCOC1	237	124	< 31.6	< 31.6	58	61.3	43.1	39.1	25.6	53.7	50	44	41.8	23.5	44.8	42.4	35.7	30.5	23.8	35.5	IC50 (second compound 10 µM): < 31.6 nM; viability, T/C [26]: 19.1%; viability, T/C [27]: 16.1%; viability, T/C [28]: 16.7%; viability, T/C [17]: 31.4%; viability, T/C [18]: 28.8%; viability, T/C [19]: 25.1%; viability, T/C [20]: 19.7%; viability, T/C [29]: 13.2%; viability, T/C [21]: 32.8%; viability, T/C [22]: 28.6%; viability, T/C [23]: 30.9%; viability, T/C [24]: 29.1%; viability, T/C [25]: 18%; viability, T/C [30]: 8.97%
CC(C)NCC(C(=O)N1CCN(c2ncnc3c2C(C)CC3O)CC1)c1ccc(Cl)cc1 (stereo not given) + CC1OCC2(CCN(c3cnc(Sc4ccnc(N)c4Cl)c(N)n3)CC2)C1N	389	235	52.1	< 31.6	88.7	81.9	53.5	27.6	11.3	65.7	66.2	43.4	21.7	8.04	55.9	42.3	20.5	7.92	6.64	37.6	IC50 (second compound 10 µM): < 31.6 nM; viability, T/C [26]: 7.62%; viability, T/C [27]: 5.81%; viability, T/C [28]: 4.61%; viability, T/C [17]: 27.2%; viability, T/C [18]: 13%; viability, T/C [19]: 7.62%; viability, T/C [20]: 4.7%; viability, T/C [29]: 3.86%; viability, T/C [21]: 25.7%; viability, T/C [22]: 20.4%; viability, T/C [23]: 14.5%; viability, T/C [24]: 7.49%; viability, T/C [25]: 4.67%; viability, T/C [30]: 3.48%
COC(=O)c1ccc2c(C(=Nc3ccc(N(C)C(=O)CN4CCN(C)CC4)cc3)c3ccccc3)c(O)[nH]c2c1 + C=CC(=O)N1CCN(c2nc(OCC3CCCN3C)nc3c2CCN(c2cccc4cccc(C)c24)C3)CC1CC#N	< 31.6	< 31.6	< 31.6	< 31.6	30	32.6	21.7	23	20.5	25.7	21.7	24.1	21.7	20	26.5	19.2	19.7	17.8	8.02	6.95	IC50 (second compound 0.0316 µM): < 31.6 nM; viability, T/C (second compound 0.0316 µM, first compound 0.0316 µM): 42.5%; viability, T/C (second compound 0.0316 µM, first compound 0.1 µM): 36.9%; viability, T/C (second compound 0.0316 µM, first compound 0.316 µM): 28.2%; viability, T/C (second compound 0.0316 µM, first compound 1 µM): 26.6%; viability, T/C (second compound 0.0316 µM, first compound 3.16 µM): 25.1%; viability, T/C (second compound 0.0316 µM, first compound 10 µM): 7.5%; viability, T/C [26]: 8.85%; viability, T/C [27]: 1.11%; viability, T/C [28]: 0.28%; viability, T/C [17]: 3.11%; viability, T/C [18]: 20.2%; viability, T/C [19]: 0.09%; viability, T/C [20]: 0.09%; viability, T/C [29]: 0.95%
